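Exposure lasted 48 hours, with cells grown in 96-well plates and compounds tested at five concentrations. The concentration for full growth arrest is given as TGI.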
Columns and labels:
Experiment in all cases: NCI-60 cell line screen, 48 h
A498 renal = test system: A498 renal
786-0 renal = test system: 786-0 renal
HCT-15 colon = test system: HCT-15 colon
SF-539 CNS = test system: SF-539 CNS
SK-MEL-28 melanoma = test system: SK-MEL-28 melanoma
NCI-H522 lung = test system: NCI-H522 lung
BT-549 breast = test system: BT-549 breast
SNB-75 CNS = test system: SNB-75 CNS
NCI-H23 lung = test system: NCI-H23 lung
CCRF-CEM leukemia = test system: CCRF-CEM leukemia
MDA-N = test system: MDA-N
RXF 393 renal = test system: RXF 393 renal
SK-OV-3 ovarian = test system: SK-OV-3 ovarian
HCC-2998 colon = test system: HCC-2998 colon
IGROV1 ovarian = test system: IGROV1 ovarian
NCI-H460 lung = test system: NCI-H460 lung
SF-295 CNS = test system: SF-295 CNS
SK-MEL-2 melanoma = test system: SK-MEL-2 melanoma
SN12C renal = test system: SN12C renal
HL-60(TB) leukemia = test system: HL-60(TB) leukemia
NCI/ADR-RES ovarian = test system: NCI/ADR-RES ovarian
ACHN renal = test system: ACHN renal
HT29 colon = test system: HT29 colon
TK-10 renal = test system: TK-10 renal
OVCAR-4 ovarian = test system: OVCAR-4 ovarian
DU-145 prostate = test system: DU-145 prostate
RPMI-8226 leukemia = test system: RPMI-8226 leukemia
UACC-62 melanoma = test system: UACC-62 melanoma
U251 CNS = test system: U251 CNS
NCI-H226 lung = test system: NCI-H226 lung
EKVX NSCLC = test system: EKVX NSCLC
UO-31 renal = test system: UO-31 renal
MDA-MB-435 = test system: MDA-MB-435
UACC-257 melanoma = test system: UACC-257 melanoma
SR leukemia = test system: SR leukemia
PC-3 prostate = test system: PC-3 prostate
HCT-116 colon = test system: HCT-116 colon
K-562 leukemia = test system: K-562 leukemia
SW-620 colon = test system: SW-620 colon
A549 NSCLC = test system: A549 NSCLC
COLO 205 colon = test system: COLO 205 colon
LOX IMVI melanoma = test system: LOX IMVI melanoma
MCF7 breast = test system: MCF7 breast
CAKI-1 renal = test system: CAKI-1 renal
KM12 colon = test system: KM12 colon
SK-MEL-5 melanoma = test system: SK-MEL-5 melanoma
T-47D breast = test system: T-47D breast
SNB-19 CNS = test system: SNB-19 CNS
HOP-92 NSCLC = test system: HOP-92 NSCLC
OVCAR-5 ovarian = test system: OVCAR-5 ovarian
OVCAR-3 ovarian = test system: OVCAR-3 ovarian
HS 578T breast = test system: HS 578T breast
SF-268 CNS = test system: SF-268 CNS
M14 melanoma = test system: M14 melanoma
MOLT-4 leukemia = test system: MOLT-4 leukemia
OVCAR-8 ovarian = test system: OVCAR-8 ovarian
MALME-3M melanoma = test system: MALME-3M melanoma
HOP-62 NSCLC = test system: HOP-62 NSCLC
MDA-MB-231 breast = test system: MDA-MB-231 breast

`COc1ccccc1/C=C/C1=NN(c2cccc(S(=O)(=O)O)c2)C2(C1)C(Cl)C(=O)N2c1nc2ccccc2s1` (centres undefined) was tested, and the TGI (A498 renal) was > 100 µM, the TGI (786-0 renal) was > 59.8 µM and the TGI (HCT-15 colon) was > 100 µM. For the same compound, the TGI (SF-539 CNS) was > 100 µM, the TGI (SK-MEL-28 melanoma) was > 100 µM and the TGI (NCI-H522 lung) was > 58.8 µM. The TGI (BT-549 breast) was > 100 µM, the TGI (SNB-75 CNS) was > 96.3 µM and the TGI (NCI-H23 lung) was > 100 µM. The TGI (CCRF-CEM leukemia) was 33.1 µM, the TGI (MDA-N) was > 100 µM and the TGI (RXF 393 renal) was > 87 µM. The TGI (SK-OV-3 ovarian) was > 100 µM, the TGI (HCC-2998 colon) was > 100 µM and the TGI (IGROV1 ovarian) was > 100 µM. The TGI (NCI-H460 lung) was > 100 µM, the TGI (SF-295 CNS) was > 100 µM and the TGI (SK-MEL-2 melanoma) was > 100 µM. For the same compound, the TGI (SN12C renal) was > 100 µM, the TGI (HL-60(TB) leukemia) was 45.5 µM and the TGI (NCI/ADR-RES ovarian) was > 100 µM. The TGI (ACHN renal) was > 100 µM, the TGI (HT29 colon) was > 100 µM and the TGI (TK-10 renal) was > 100 µM. For the same compound, the TGI (OVCAR-4 ovarian) was > 100 µM, the TGI (DU-145 prostate) was > 100 µM and the TGI (RPMI-8226 leukemia) was 44 µM. The TGI (UACC-62 melanoma) was > 100 µM, the TGI (U251 CNS) was > 100 µM and the TGI (NCI-H226 lung) was > 100 µM. The TGI (EKVX NSCLC) was > 100 µM, the TGI (UO-31 renal) was 33.5 µM and the TGI (MDA-MB-435) was > 100 µM. For the same compound, the TGI (UACC-257 melanoma) was > 100 µM, the TGI (SR leukemia) was 55.2 µM and the TGI (PC-3 prostate) was > 100 µM. The TGI (HCT-116 colon) was > 100 µM, the TGI (K-562 leukemia) was > 100 µM and the TGI (SW-620 colon) was > 100 µM. For the same compound, the TGI (A549 NSCLC) was > 100 µM, the TGI (COLO 205 colon) was > 100 µM and the TGI (LOX IMVI melanoma) was > 67 µM. For the same compound, the TGI (MCF7 breast) was > 100 µM, the TGI (CAKI-1 renal) was > 74.3 µM and the TGI (KM12 colon) was > 100 µM. The TGI (SK-MEL-5 melanoma) was > 100 µM, the TGI (T-47D breast) was 44 µM and the TGI (SNB-19 CNS) was > 100 µM. For the same compound, the TGI (HOP-92 NSCLC) was > 95 µM, the TGI (OVCAR-5 ovarian) was > 100 µM and the TGI (OVCAR-3 ovarian) was > 100 µM. The TGI (HS 578T breast) was > 100 µM, the TGI (SF-268 CNS) was > 100 µM and the TGI (M14 melanoma) was > 100 µM. For the same compound, the TGI (MOLT-4 leukemia) was > 100 µM, the TGI (OVCAR-8 ovarian) was > 100 µM and the TGI (MALME-3M melanoma) was > 100 µM. The TGI (HOP-62 NSCLC) was > 100 µM and the TGI (MDA-MB-231 breast) was > 100 µM.
